Measured values published in patent US20100022014A1, “Method for Evaluating Obesity Controller” (Kao Corporation, priority 2006, published 2010).

Tested on: insulin secretion
Test: Postprandial insulin secretion after oral glucose + triolein emulsion with added 1-monoolein (Example 5)
Format: in vivo, mouse
Details: MAG in a one-tenth or one-fifth amount, in words
Description: Triolein (obtained from Sigma Corp.) was used as triacylglycerol, and 1-monoolein (obtained from Sigma Corp.) was used as monoacylglycerol. Glucose (Kanto Chemical Co., Inc.) was used as the carbohydrate.
Eight fasted mice (C57BL/6J, male, 8 weeks old) were grouped in each group, and the mice were orally administered, using a sonde, with 2 mg/g of body weight of glucose only; with the glucose and also 2 mg/g of body weight of triolein (TAG), in the form of an emulsion obtained by emulsifying 0.02 mg/g of body weight of the lipid with egg yolk lecithin (Glucose and TAG/MAG0, respectively); or with mixtures obtained by respectively adding 0.08, 0.2 and 0.4 mg/g of body weight of 1-monoolein (MAG) to the emulsion (TAG/MAG1, TAG/MAG2, and TAG/MAG3, respectively). The blood was sampled from the orbital vein of each mouse before the administration, and at 10 and 30 minutes after the administration, the blood insulin level was measured, and the area under curve (AUC) of the graph was calculated. The insulin level was measured by the ELISA method (insulin measuring kit, Morinaga Biochemical Lab, Inc.).
Relative values of the amount of secreted insulin (AUC) for 30 minutes after the administration, with respective to the insulin AUC value of the mice which ingested glucose only, taken as 100, are presented in Table 9.

`CCCCCCCC/C=C\CCCCCCCC(=O)OCC(O)CO` (stereo not shown) [MAG, 1-monoolein] was tested, and the “Effect on postprandial insulin secretion relative to TAG/MAG0” value was “effect of suppressing the postprandial insulin secretion in the blood was recognized”.
